{
  "source": "patent US10377991B2",
  "about": "“Method of producing airway epithelial cells” (KYOTO UNIVERSITY, priority 2015, dated 2019)",
  "tested_on": "proximal airway epithelial progenitor cells induced from human iPS cells (201B7)",
  "test": "Induction of differentiation into ciliated airway epithelial cells in Step 6 three-dimensional culture, qRT-PCR of FOXJ1, DNAHS and SNTN",
  "format": "cell-based",
  "details": "10 μM DAPT in medium for Step 6 from Day 42, read on Day 56; versus Step 6 medium without DAPT",
  "description": "On Day 42 (i.e., upon completion of Step 5), the medium in the lower layer of Cell Culture Inserts (Corning) was exchanged with the medium for Step 6, and the medium of the lower layer was selectively exchanged with another medium every other day.\nThe medium for Step 6 was prepared by supplementing the Pneumacult-ALI Maintenance Medium (STEMCELL Technologies) with 10 μM Y-27632.\nOn Day 6 (i.e., upon completion of Step 1), Day 14 (i.e., upon completion of Step 3), Day 28 (i.e., upon completion of Step 4), Day 42 (i.e., upon completion of Step 5), and Day 56 (i.e., upon completion of Step 6), expression levels of FOXJ1, DNAHS, and SNTN as marker genes specific to ciliated airway epithelial cells were analyzed via quantitative RT-PCR. Day 56 (+DAPT) represents the results of culture conducted in the medium for Step 6 supplemented with 10 μM DAPT from Day 42 (i.e., upon completion of Step 5). The measured values indicate the ratio of the cell expression levels to the amount of β-actin (AB) corrected with the expression levels in the human fetal trachea (F-trachea, 29-weeks pregnant, BioChain Institute).",
  "data": [
    {"smiles": "C[C@H](NC(=O)Cc1cc(F)cc(F)c1)C(=O)N[C@H](C(=O)OC(C)(C)C)c1ccccc1", "note": "[DAPT, N-[2S-(3,5-difluorophenyl)acetyl]-L-alanyl-2-phenyl-1,1-dimethylethyl ester-glycine]", "values": [
      {"measurement": "differentiation into ciliated airway epithelial cells (expression of FOXJ1, DNAHS, SNTN by qRT-PCR)", "value": "further accelerated"}
    ]}
  ]
}
